Tested on: 616215-338-R-J1-PDC spheroids with HUVEC/MSC, viability
Test: Anticancer human tumor 616215-338-R-J1-PDC patient-derived colon adenocarcinoma cell line growth inhibition [PI3K]
Conditions: for IC50: curve of first compound; for viability, T/C: stronger effect = lower value
Outline: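 Spheroid viability read-out. Co-cultures contained the tumor line plus HUVEC and human MSCs. Each agent was paired with a PI3K inhibitor (inavolisib, alpelisib, duvelisib, copanlisib) across half-log dilutions starting at clinical Cmax, or at 10 microM when Cmax was unknown.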

[1] = second compound 0.0316 µM, first compound 0.0316 µM
[2] = second compound 0.0316 µM, first compound 0.1 µM
[3] = second compound 0.1 µM, first compound 0.0316 µM
[4] = second compound 0.1 µM, first compound 0.1 µM
[5] = second compound 0.316 µM, first compound 0.0316 µM
[6] = second compound 0.316 µM, first compound 0.1 µM
[7] = second compound 1 µM, first compound 0.0316 µM
[8] = second compound 1 µM, first compound 0.1 µM
[9] = second compound 3.16 µM, first compound 0.0316 µM
[10] = second compound 3.16 µM, first compound 0.1 µM
[11] = second compound 10 µM, first compound 0.0316 µM
[12] = second compound 10 µM, first compound 0.1 µM
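Note: spheroids exposed to agents for seven days before the viability read.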

C[C@@H](NC(=O)c1ncnc(N)c1Cl)c1ncc(C(=O)Nc2cc(C(F)(F)F)c(Cl)cn2)s1 + CC(Nc1ncnc2nc[nH]c12)c1cc2cccc(Cl)c2c(=O)n1-c1ccccc1
IC50 (second compound 0.0316 µM): > 10 µM
IC50 (second compound 0.1 µM): > 10 µM
IC50 (second compound 0.316 µM): > 10 µM
IC50 (second compound 1 µM): > 10 µM
IC50 (second compound 3.16 µM): > 10 µM
IC50 (second compound 10 µM): 9.7 µM
viability, T/C [1]: 100%
viability, T/C [2]: 115%
viability, T/C (second compound 0.0316 µM, first compound 0.316 µM): 105%
viability, T/C (second compound 0.0316 µM, first compound 1 µM): 105%
viability, T/C (second compound 0.0316 µM, first compound 3.16 µM): 114%
viability, T/C (second compound 0.0316 µM, first compound 10 µM): 88.5%
viability, T/C [3]: 99.7%
viability, T/C [4]: 101%
viability, T/C (second compound 0.1 µM, first compound 0.316 µM): 97%
viability, T/C (second compound 0.1 µM, first compound 1 µM): 118%
viability, T/C (second compound 0.1 µM, first compound 3.16 µM): 105%
viability, T/C (second compound 0.1 µM, first compound 10 µM): 90.5%
viability, T/C [5]: 112%
viability, T/C [6]: 105%
viability, T/C (second compound 0.316 µM, first compound 0.316 µM): 101%
viability, T/C (second compound 0.316 µM, first compound 1 µM): 110%
viability, T/C (second compound 0.316 µM, first compound 3.16 µM): 99%
viability, T/C (second compound 0.316 µM, first compound 10 µM): 74.6%
viability, T/C [7]: 104%
viability, T/C [8]: 106%
viability, T/C (second compound 1 µM, first compound 0.316 µM): 104%
viability, T/C (second compound 1 µM, first compound 1 µM): 96.6%
viability, T/C (second compound 1 µM, first compound 3.16 µM): 113%
viability, T/C (second compound 1 µM, first compound 10 µM): 64.8%
viability, T/C [9]: 95.9%
viability, T/C [10]: 103%
viability, T/C (second compound 3.16 µM, first compound 0.316 µM): 104%
viability, T/C (second compound 3.16 µM, first compound 1 µM): 98.4%
viability, T/C (second compound 3.16 µM, first compound 3.16 µM): 99.4%
viability, T/C (second compound 3.16 µM, first compound 10 µM): 67.2%
viability, T/C [11]: 95.4%
viability, T/C [12]: 113%
viability, T/C (second compound 10 µM, first compound 0.316 µM): 98.8%
viability, T/C (second compound 10 µM, first compound 1 µM): 98.5%
viability, T/C (second compound 10 µM, first compound 3.16 µM): 88.5%
viability, T/C (second compound 10 µM, first compound 10 µM): 48.4%

Cn1ncnc1[C@H]1c2n[nH]c(=O)c3cc(F)cc(c23)N[C@@H]1c1ccc(F)cc1 + CC(Nc1ncnc2nc[nH]c12)c1cc2cccc(Cl)c2c(=O)n1-c1ccccc1
IC50 (second compound 0.0316 µM): > 0.1 µM
IC50 (second compound 0.1 µM): > 0.1 µM
IC50 (second compound 0.316 µM): > 0.1 µM
IC50 (second compound 1 µM): > 0.1 µM
IC50 (second compound 3.16 µM): > 0.1 µM
IC50 (second compound 10 µM): > 0.1 µM
viability, T/C (second compound 0.0316 µM, first compound 0.000316 µM): 104%
viability, T/C (second compound 0.0316 µM, first compound 0.001 µM): 104%
viability, T/C (second compound 0.0316 µM, first compound 0.00316 µM): 102%
viability, T/C (second compound 0.0316 µM, first compound 0.01 µM): 96.8%
viability, T/C [1]: 105%
viability, T/C [2]: 96.8%
viability, T/C (second compound 0.1 µM, first compound 0.000316 µM): 87.6%
viability, T/C (second compound 0.1 µM, first compound 0.001 µM): 97.8%
viability, T/C (second compound 0.1 µM, first compound 0.00316 µM): 97%
viability, T/C (second compound 0.1 µM, first compound 0.01 µM): 92.9%
viability, T/C [3]: 101%
viability, T/C [4]: 93.5%
viability, T/C (second compound 0.316 µM, first compound 0.000316 µM): 98.5%
viability, T/C (second compound 0.316 µM, first compound 0.001 µM): 95.6%
viability, T/C (second compound 0.316 µM, first compound 0.00316 µM): 106%
viability, T/C (second compound 0.316 µM, first compound 0.01 µM): 96.9%
viability, T/C [5]: 96.9%
viability, T/C [6]: 101%
viability, T/C (second compound 1 µM, first compound 0.000316 µM): 101%
viability, T/C (second compound 1 µM, first compound 0.001 µM): 109%
viability, T/C (second compound 1 µM, first compound 0.00316 µM): 99.7%
viability, T/C (second compound 1 µM, first compound 0.01 µM): 105%
viability, T/C [7]: 100%
viability, T/C [8]: 91.5%
viability, T/C (second compound 3.16 µM, first compound 0.000316 µM): 91.5%
viability, T/C (second compound 3.16 µM, first compound 0.001 µM): 108%
viability, T/C (second compound 3.16 µM, first compound 0.00316 µM): 106%
viability, T/C (second compound 3.16 µM, first compound 0.01 µM): 90%
viability, T/C [9]: 94.9%
viability, T/C [10]: 100%
viability, T/C (second compound 10 µM, first compound 0.000316 µM): 111%
viability, T/C (second compound 10 µM, first compound 0.001 µM): 106%
viability, T/C (second compound 10 µM, first compound 0.00316 µM): 102%
viability, T/C (second compound 10 µM, first compound 0.01 µM): 96.7%
viability, T/C [11]: 100%
viability, T/C [12]: 95%

From PubChem BioAssay AID1963978 (Molecular Pharmacology Branch, DTP, NCI, 2024)
